Experimental data from patent US20260226086A1, “COMPOUNDS AND COMPOSITIONS AS STAT3 DEGRADERS AND USES THEREOF” (REGENTS OF THE UNIVERSITY OF MICHIGAN, priority 2023, published 2026).

What was measured:
Format in all cases: cell-based
[1] = system: SUP-M2 cells; assay: CellTiter-Glo 2.0 cell viability assay, SUP-M2; conditions: SUP-M2, 96 h, 4 days
How it was run: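 IC50 derived by four-parameter nonlinear regression on triplicate luminescence data (CellTiter-Glo 2.0), normalised to untreated controls. Cells plated at 1000/well received serial compound dilutions for 4 days at 37 °C with 5% CO2.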

[2] = system: SU-DHL-1 cells; assay: CellTiter-Glo 2.0 cell viability assay, SU-DHL-1; conditions: Homo sapiens, 96 h, 4 days
Description: For example, cell viability may be determined by CellTiter-Glo 2.0 Cell Viability Assay. In a typical procedure, cells seeded at certain amounts of cells (e.g., 1000 cells) per well are incubated with serially diluted compounds for certain period (e.g., 4 days) under certain conditions (e.g., at 37° C. with 5% CO2). At the end of treatment, CellTiter-Glo 2.0 is added to the wells and luminescence is acquired on TECAN SPARK plate reader. Untreated cells are used as control, Data points are fit with an equation (e.g., a four-parameter equation) to generate a concentration-response curve. IC50 values are calculated using a nonlinear regression analysis of the mean±SD from triplicate.
SU-DHL-1 and SUP-M2 cell viability was determined by CellTiter-Glo 2.0 Cell Viability Assay (Promega). SU-DHL-1 cell line was purchased from ATCC (Manassas, VA) and SUP-M2 (ACC-509) was purchased from DSMZ (Germany). RPMI 1640 medium and fetal bovine serum (FBS) were purchased from Gibco/Thermo Fisher Scientific. In a typical procedure, cells seeded at 1000 cells per well in 384-well white plates (Corning) were incubated with serially diluted compounds for 4 days at 37° C. with 5% C02. At the end of treatment, CellTiter-Glo 2.0 was added to the wells and luminescence was acquired on TECAN SPARK plate reader. Untreated cells were used as control. Data points were fit with a four-parameter equation to generate a concentration-response curve. IC50 values were calculated using a nonlinear regression analysis of the mean±SD from triplicate.

[3] = biological target: T1, STAT3 (Homo sapiens, UniProt P40763); assay: HiBiT assay, STAT3 degradation in STAT3-HiBiT KI HeLa cells; conditions: 24 h; for DC50: read-out: STAT3 Degradation (HeLa 24 h HiBit) DC50
T1 construct: This cell line is a clone created by using CRISPR-Cas9 to fuse HiBiT to the 3′ end of STAT3 in HeLa cells; host or cells: STAT3-HiBiT KI HeLa cell line (CRISPR-Cas9 knock-in clone)
How it was run: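 Luminescence of endogenous HiBiT-tagged STAT3 (C-terminal knock-in, HeLa) was measured with lytic Nano-Glo detection after 24 h exposure to serially diluted compounds at 37 °C. Cells plated at 20000/well; untreated cells served as control, and triplicate means were fit by four-parameter regression to give IC50.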

T1 sequence (P40763 whole entry): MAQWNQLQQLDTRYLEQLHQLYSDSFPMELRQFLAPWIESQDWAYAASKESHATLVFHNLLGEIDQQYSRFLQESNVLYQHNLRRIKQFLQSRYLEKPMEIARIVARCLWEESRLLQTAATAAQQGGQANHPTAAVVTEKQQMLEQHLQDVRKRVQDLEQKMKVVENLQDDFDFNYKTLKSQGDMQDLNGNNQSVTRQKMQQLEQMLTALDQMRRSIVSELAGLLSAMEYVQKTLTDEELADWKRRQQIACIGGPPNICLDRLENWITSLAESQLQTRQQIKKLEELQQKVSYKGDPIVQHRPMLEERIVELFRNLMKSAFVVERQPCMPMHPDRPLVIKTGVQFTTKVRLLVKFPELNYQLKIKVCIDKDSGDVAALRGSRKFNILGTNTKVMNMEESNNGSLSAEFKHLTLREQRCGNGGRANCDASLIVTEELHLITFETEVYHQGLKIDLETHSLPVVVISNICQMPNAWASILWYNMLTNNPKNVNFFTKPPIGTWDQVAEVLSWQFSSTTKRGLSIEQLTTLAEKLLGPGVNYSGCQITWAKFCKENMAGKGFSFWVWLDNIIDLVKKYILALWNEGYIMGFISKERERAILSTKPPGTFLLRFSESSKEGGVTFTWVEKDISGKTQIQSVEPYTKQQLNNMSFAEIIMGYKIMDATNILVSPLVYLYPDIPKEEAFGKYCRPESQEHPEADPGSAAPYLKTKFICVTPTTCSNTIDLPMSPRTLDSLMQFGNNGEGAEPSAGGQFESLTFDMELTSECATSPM

| SMILES | IC50 [1] [nM] | IC50 [2] [nM] | Dmax at 1 µM [3] [%] | DC50 [3] [nM] |
| --- | --- | --- | --- | --- |
| Cc1ncsc1-c1ccc([C@H](C)NC(=O)[C@@H]2C[C@@H](O)CN2C(=O)[C@@H](n2cc(CCCc3cccc(OC[C@H](CCC(N)=O)NC(=O)[C@@H]4CC[C@@H]5CCN(C(=O)C6CCN(C)CC6)C[C@H](NC(=O)c6cc7cc(C(=O)P(=O)(O)O)ccc7[nH]6)C(=O)N54)c3Cl)nn2)C(C)(C)C)cc1 [Compound 32, (2-(((5S,8S,10aR)-8-(((S)-5-amino-1-(2-chloro-3-(3-(1-((S)-1-((2S,4R)-4-hydroxy-2-(((S)-1-(4-(4-methylthiazol-5-yl)phenyl)ethyl)carbamoyl)pyrrolidin-1-yl)-3,3-dimethyl-1-oxobutan-2-yl)-1H-1,2,3-triazol-4-yl)propyl)phenoxy)-5-oxopentan-2-yl)carbamoyl)-3-(1-methylpiperidine-4-carbonyl)-6-oxodecahydropyrrolo[1,2-a][1,5]diazocin-5-yl)carbamoyl)-1H-indole-5-carbonyl)phosphonic acid] | 100 to 1000 | 10 to 100 | > 80 | 10 to 100 |
| Cc1ncsc1-c1ccc([C@H](C)NC(=O)[C@@H]2C[C@@H](O)CN2C(=O)[C@@H](n2cc(CCCCCC(=O)N3CC[C@H]4CC[C@@H](C(=O)N[C@@H](CCC(N)=O)C(=O)NC(c5ccccc5)c5ccccc5)N4C(=O)[C@@H](NC(=O)c4cc5cc(C(=O)P(=O)(O)O)ccc5[nH]4)C3)nn2)C(C)(C)C)cc1 [Compound 58, (2-(((5S,8S,10aR)-8-(((S)-5-amino-1-(benzhydrylamino)-1,5-dioxopentan-2-yl)carbamoyl)-3-(6-(1-((S)-1-((2S,4R)-4-hydroxy-2-(((S)-1-(4-(4-methylthiazol-5-yl)phenyl)ethyl)carbamoyl)pyrrolidin-1-yl)-3,3-dimethyl-1-oxobutan-2-yl)-1H-1,2,3-triazol-4-yl)hexanoyl)-6-oxodecahydropyrrolo[1,2-a][1,5]diazocin-5-yl)carbamoyl)-1H-indole-5-carbonyl)phosphonic acid] | 100 to 1000 | > 1000 | – | > 1000 |
| Cc1ncsc1-c1ccc([C@H](C)NC(=O)[C@@H]2C[C@@H](O)CN2C(=O)[C@@H](n2cc(CCc3cccc(OC[C@H](CCC(N)=O)NC(=O)[C@@H]4CC[C@@H]5CCN(C(=O)C(C)C)C[C@H](NC(=O)c6cc7cc(C(=O)P(=O)(O)O)ccc7[nH]6)C(=O)N54)c3Cl)nn2)C(C)(C)C)cc1 [Compound 3, (2-(((5S,8S,10aR)-8-(((S)-5-amino-1-(2-chloro-3-(2-(1-((S)-1-((2S,4R)-4-hydroxy-2-(((S)-1-(4-(4-methylthiazol-5-yl)phenyl)ethyl)carbamoyl)pyrrolidin-1-yl)-3,3-dimethyl-1-oxobutan-2-yl)-1H-1,2,3-triazol-4-yl)ethyl)phenoxy)-5-oxopentan-2-yl)carbamoyl)-3-isobutyryl-6-oxodecahydropyrrolo[1,2-a][1,5]diazocin-5-yl)carbamoyl)-1H-indole-5-carbonyl)phosphonic acid] | 10 to 100 | 10 to 100 | > 80 | 10 to 100 |
| CC(=O)N1CC[C@H]2CC[C@@H](C(=O)N[C@@H](CCC(N)=O)COc3cccc(CCCc4cn([C@H](C(=O)N5C[C@H](O)C[C@H]5C(=O)N[C@@H](CCN5CCOCC5)c5ccc(-c6scnc6C)cc5)C(C)(C)C)nn4)c3Cl)N2C(=O)[C@@H](NC(=O)c2cc3cc(C(=O)P(=O)(O)O)ccc3[nH]2)C1 [Compound 4, (2-(((5S,8S,10aR)-3-acetyl-8-(((S)-5-amino-1-(2-chloro-3-(3-(1-((S)-1-((2S,4R)-4-hydroxy-2-(((S)-1-(4-(4-methylthiazol-5-yl)phenyl)-3-morpholinopropyl)carbamoyl)pyrrolidin-1-yl)-3,3-dimethyl-1-oxobutan-2-yl)-1H-1,2,3-triazol-4-yl)propyl)phenoxy)-5-oxopentan-2-yl)carbamoyl)-6-oxodecahydropyrrolo[1,2-a][1,5]diazocin-5-yl)carbamoyl)-1H-indole-5-carbonyl)phosphonic acid] | 10 to 100 | 10 to 100 | > 80 | 10 to 100 |
| CC(=O)N1CC[C@H]2CC[C@@H](C(=O)N[C@@H](CCC(N)=O)COc3cccc(CCCCNC(=O)C[C@H](NC(=O)[C@@H]4C[C@@H](O)CN4C(=O)[C@H](C4CCCCC4)n4cc(C5CC5)nn4)c4ccc(-c5scnc5C)cc4)c3Cl)N2C(=O)[C@@H](NC(=O)c2cc3cc(C(=O)P(=O)(O)O)ccc3[nH]2)C1 [Compound 36, (2-(((5S,8S,10aR)-3-acetyl-8-(((S)-5-amino-1-(2-chloro-3-(4-((S)-3-((2S,4R)-1-((S)-2-cyclohexyl-2-(4-cyclopropyl-1H-1,2,3-triazol-1-yl)acetyl)-4-hydroxypyrrolidine-2-carboxamido)-3-(4-(4-methylthiazol-5-yl)phenyl)propanamido)butyl)phenoxy)-5-oxopentan-2-yl)carbamoyl)-6-oxodecahydropyrrolo[1,2-a][1,5]diazocin-5-yl)carbamoyl)-1H-indole-5-carbonyl)phosphonic acid] | < 10 | < 10 | > 80 | < 10 |
| CCS(=O)(=O)c1ccc(CNC(=O)[C@H](CCC(N)=O)NC(=O)[C@@H]2CC[C@@H]3CCN(C(=O)CCCCc4cn([C@H](C(=O)N5C[C@H](O)C[C@H]5C(=O)N[C@@H](CN5CCOCC5)c5ccc(-c6scnc6C)cc5)C(C)(C)C)nn4)C[C@H](NC(=O)c4cc5cc(C(=O)P(=O)(O)O)ccc5[nH]4)C(=O)N32)cc1 [Compound 16, (2-(((5S,8S,10aR)-8-(((S)-5-amino-1-((4-(ethylsulfonyl)benzyl)amino)-1,5-dioxopentan-2-yl)carbamoyl)-3-(5-(1-((S)-1-((2S,4R)-4-hydroxy-2-(((R)-1-(4-(4-methylthiazol-5-yl)phenyl)-2-morpho-linoethyl)carbamoyl)pyrrolidin-1-yl)-3,3-dimethyl-1-oxobutan-2-yl)-1H-1,2,3-triazol-4-yl)pentanoyl)-6-oxodecahydropyrrolo[1,2-a][1,5]diazocin-5-yl)carbamoyl)-1H-indole-5-carbonyl)phosphonic acid] | 100 to 1000 | 100 to 1000 | > 80 | 10 to 100 |
| CC(=O)N1CC[C@H]2CC[C@@H](C(=O)N[C@@H](CCC(N)=O)COc3cccc(CCCc4cn([C@H](C(=O)N5C[C@H](O)C[C@H]5C(=O)N[C@@H](CN5CCOCC5)c5ccc(-c6scnc6C)cc5)C(C)(C)C)nn4)c3Cl)N2C(=O)[C@@H](NC(=O)c2cc3cc(C(=O)P(=O)(O)O)ccc3[nH]2)C1 [Compound 5, (2-(((5S,8S,10aR)-3-acetyl-8-(((S)-5-amino-1-(2-chloro-3-(3-(1-((S)-1-((2S,4R)-4-hydroxy-2-(((R)-1-(4-(4-methylthiazol-5-yl)phenyl)-2-morpholinoethyl)carbamoyl)pyrrolidin-1-yl)-3,3-dimethyl-1-oxobutan-2-yl)-1H-1,2,3-triazol-4-yl)propyl)phenoxy)-5-oxopentan-2-yl)carbamoyl)-6-oxodecahydropyrrolo[1,2-a][1,5]diazocin-5-yl)carbamoyl)-1H-indole-5-carbonyl)phosphonic acid] | 10 to 100 | 10 to 100 | > 80 | 10 to 100 |
| CC(=O)N1CC[C@H]2CC[C@@H](C(=O)N[C@@H](CCC(N)=O)COc3cccc(CCCc4cn([C@H](C(=O)N5C[C@H](O)C[C@H]5C(=O)N[C@@H](C)c5ccc(-c6scnc6C)cc5)C5CCCCC5)nn4)c3Cl)N2C(=O)[C@@H](NC(=O)c2cc3cc(C(=O)P(=O)(O)O)ccc3[nH]2)C1 [Compound 19, (2-(((5S,8S,10aR)-3-acetyl-8-(((S)-5-amino-1-(2-chloro-3-(3-(1-((S)-1-cyclohexyl-2-((2S,4R)-4-hydroxy-2-(((S)-1-(4-(4-methylthiazol-5-yl)phenyl)ethyl)carbamoyl)pyrrolidin-1-yl)-2-oxoethyl)-1H-1,2,3-triazol-4-yl)propyl)phenoxy)-5-oxopentan-2-yl)carbamoyl)-6-oxodecahydropyrrolo[1,2-a][1,5]diazocin-5-yl)carbamoyl)-1H-indole-5-carbonyl)phosphonic acid] | < 10 | < 10 | > 80 | < 10 |
